The target of the experiment is T1, rat NPR-A (Rattus norvegicus, UniProt P18910).
T1 construct: endogenous in cells; host or cells: rat PC12 cells
T1 sequence (P18910 29-1057): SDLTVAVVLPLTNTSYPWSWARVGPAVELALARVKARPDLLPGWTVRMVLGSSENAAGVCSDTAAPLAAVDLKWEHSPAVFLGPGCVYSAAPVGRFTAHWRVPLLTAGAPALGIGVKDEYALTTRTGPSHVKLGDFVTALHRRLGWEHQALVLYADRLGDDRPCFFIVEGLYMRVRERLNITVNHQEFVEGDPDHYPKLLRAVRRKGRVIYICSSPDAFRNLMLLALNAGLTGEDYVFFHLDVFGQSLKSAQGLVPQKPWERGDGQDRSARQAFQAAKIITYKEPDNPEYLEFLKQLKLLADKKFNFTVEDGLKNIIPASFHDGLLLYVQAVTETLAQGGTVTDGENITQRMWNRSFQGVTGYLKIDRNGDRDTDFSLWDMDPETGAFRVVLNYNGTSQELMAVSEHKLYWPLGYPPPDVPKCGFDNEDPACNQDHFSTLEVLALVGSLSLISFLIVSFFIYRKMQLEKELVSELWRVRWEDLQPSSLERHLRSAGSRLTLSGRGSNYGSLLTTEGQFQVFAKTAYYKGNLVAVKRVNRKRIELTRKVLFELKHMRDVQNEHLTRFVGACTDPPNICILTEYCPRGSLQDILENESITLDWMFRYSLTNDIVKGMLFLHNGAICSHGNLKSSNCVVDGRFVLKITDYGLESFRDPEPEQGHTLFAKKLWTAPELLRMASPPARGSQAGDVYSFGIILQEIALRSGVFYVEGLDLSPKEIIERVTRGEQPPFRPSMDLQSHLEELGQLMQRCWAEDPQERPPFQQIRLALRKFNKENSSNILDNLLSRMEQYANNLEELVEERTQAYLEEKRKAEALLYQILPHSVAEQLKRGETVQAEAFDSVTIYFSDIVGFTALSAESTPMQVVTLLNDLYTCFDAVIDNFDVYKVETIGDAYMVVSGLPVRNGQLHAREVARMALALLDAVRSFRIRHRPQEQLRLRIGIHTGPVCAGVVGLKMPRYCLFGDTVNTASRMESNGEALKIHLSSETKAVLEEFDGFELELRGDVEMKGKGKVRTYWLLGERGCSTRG
Nature of the experiment: cGMP ALPHAscreen, cGMP production in PC12 cells. In kind it is cell-based. The procedure:
NP activity can be determined by the effectiveness of the peptide to elicit cGMP production through NPR-A. The cGMP ALPHAscreen evaluates the ability of peptides to stimulate cGMP production in cells through a non-radioactive, homogenous, proximity assay which encompasses […]. […] In order to evaluate the potency of TNPa-e at rNPR-A, TNPa-e were evaluated using the cGMP ALPHAscreen in rat PC12 cells.
Cells were cultured at 5% CO2 and 37 °C. HEK 293 cells were cultured in high glucose DMEM (Gibco, Carlsbad, CA, USA) supplemented with 10% FBS, and 1% penicillin/streptomycin. HEK 293 cells were seeded in media lacking penicillin/streptomycin 24 to 48 h pre-transfection. PC12 cells were cultured in high glucose DMEM (Gibco) supplemented with 10% FBS and 1% penicillin/streptomycin.
The cGMP ALPHAscreen was performed using the ALPHAscreen Protein A detection kit and the biotinylated cGMP supplement (Perkin Elmer, Waltham, MA, USA) with rabbit anti-cGMP polyclonal antibody (Biovision, Mountain View, CA, USA). Cells were detached from the flask and the resulting pellet was resuspended in stimulation buffer (HBSS supplemented with 0.1% w/v BSA and 1 mM IBMX at 37 °C). Cells were added to a white 384-well Optiplate (Perkin Elmer, Waltham, USA) to 30,000 cells per well for HEK 293 cells and 10,000 cells per well for PC12 cells. Cells were incubated with different concentrations of test peptides (concentration range of 1 × 10^−5 to 1 × 10^−11 M in stimulation buffer) at 37 °C for 30 min. Cells were lysed with lysis buffer (1 M HEPES, 0.3% Tween-20, 1% BSA in H2O, pH 7.4). Then 5 μL acceptor-bead mix was added to each well under subdued lighting conditions, followed by 5 μL of donor-bead mix. Plates were incubated for ~12 h, slowly shaking at room temperature. After incubation, the ALPHAscreen signal was measured using an EnVision plate reader (Perkin Elmer). The standard curve consisted of cGMP in a concentration range of 1 × 10^−6 to 1 × 10^−12 M. All data points were acquired in triplicate and were analyzed using GraphPad Prism 5.0 software (GraphPad Software, Inc., San Diego, CA, USA).
For orientation: In Alpha technology, singlet oxygen from a donor bead excites a nearby acceptor bead.

pEC50: −log10 of the molar value. Where a SMILES comes first, the peptide text is derived from it. Bridges are numbered along the chain shown (N, C = ends).

The term pEC50 denotes −log10 of the EC50, conventionally taken in molar units.

`CC[C@H](C)[C@H](NC(=O)[C@H](CCCCN)NC(=O)[C@H](CO)NC(=O)[C@H](CC(=O)O)NC(=O)[C@@H](N)CO)C(=O)NCC(=O)N[C@@H](CC(N)=O)C(=O)NCC(=O)N[C@H]1CSSC[C@@H](C(=O)N[C@@H](CC(N)=O)C(=O)N[C@@H](CCCNC(=N)N)C(=O)N[C@H](C(=O)N[C@@H](CCSC)C(=O)N[C@@H](CCC(N)=O)C(=O)N[C@@H](CC(N)=O)C(=O)N2CCC[C@H]2C(=O)N2CCC[C@H]2C(=O)N[C@@H](CCCCN)C(=O)N[C@@H](CCCCN)C(=O)N[C@@H](Cc2ccccc2)C(=O)N[C@@H](CO)C(=O)NCC(=O)N[C@@H](CCC(=O)O)C(=O)O)[C@@H](C)CC)NC(=O)CNC(=O)[C@H](CC(C)C)NC(=O)CNC(=O)[C@H](CO)NC(=O)[C@H](C(C)C)NC(=O)[C@H](CO)NC(=O)CNC(=O)[C@H]([C@@H](C)CC)NC(=O)[C@H](CCCNC(=N)N)NC(=O)[C@H](CC(=O)O)NC(=O)[C@H](CC(C)C)NC(=O)[C@@H]2CCCN2C(=O)[C@H](Cc2ccccc2)NC(=O)CNC(=O)[C@H](Cc2ccccc2)NC1=O` [TNPc] (H-SDSKIGNGCFGFPLDRIGSVSGLGCNRIMQNPPKKFSGE-OH; disulfide 9-25): the pEC50 (PC12 cells, 30 min at 37 °C, cGMP ALPHAscreen, three to five separate experiments in triplicate, read-out: rNPR-A EC50 (95% CI), potency to stimulate cGMP production) was 7.00. Where the note is “rNPR-A (PC12) versus hNPR-A (HEK 293) cGMP potency”, the “selectivity / difference in potency for rNPR-A over hNPR-A” value was 100 fold.
